Experimental data published in patent publication US5360803A, “Composition and method for treating cancer” (Dan Farber Cancer Institute, priority 1992, dated 1994).
Like-named read-outs stand apart in the source and are kept apart here.

Experiments:
[1] = tested on: EJ cells; assay: colony assay of Example 1 with human bladder carcinoma EJ cell line; assay type: cell-based; conditions: for Selectivity: CV-1/EJ; for EJ (IC50) / IC50: Table IV, human bladder carcinoma, 24 hours treatment; for IC50: EJ;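 for all read-outs here: colony formation assay with 24 h compound exposure at 37 °C, then 7–10 days drug-free regrowth, colonies stained with crystal violet, controls given medium alone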
[2] = tested on: CX-1 cells; assay: selective killing assay, colony number reduced to 50% of control, human colon carcinoma cell line CX-1; assay type: cell-based; conditions: for Selectivity (ratio of IC50 for CV-1 and IC50 for CX-1): CV-1/CX-1; for CX-1 (IC50) / IC50: human colon carcinoma, 24 hours treatment, colony count after 7 to 10 days;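 for all read-outs here: colonies stained with crystal violet and counted, control cells given medium alone, exposure at 37 °C, normal monkey kidney epithelial CV-1 cells as the non-cancer comparator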
[3] = tested on: human colon carcinoma CX-1; assay: anti-human colon carcinoma CX-1 activity using nude mice; assay type: in vivo, Swiss nu/nu mice (human tumor)
Description: Human colon carcinoma cell line CX-1 has been chosen by the National Cancer Institute as a mode for cancer drug screening (NCI Protocol 3C2H2). It was established in culture from the surgical explant of the primary colon adenocarcinoma of a person with no previous chemotherapy. The cultured CX-1 cells, upon subcutaneous injection, can grow readily in nude mice as a moderately- to well-differentiated human colon carcinoma. CEA is expressed as expected for differentiated colon carcinoma cells. Abundant keratin, consistent with epithelial origin, is present. Increased uptake and prolonged retention of delocalized lipophilic cations are observed.
Swiss nu/nu mice obtained from Taconic Farm were housed in a pathogen-free environment. Tumors subcutaneously passaged in nude mice were excised under sterile conditions and converted to a single cell suspension using a metal grid with a 0.4 mm mesh. Red blood cells were lysed by incubation with 0.17M ammonium chloride at 4° C. for 20 minutes. Cells were scored for viability with trypan blue. Viable CX-1 cells (2.5 million) made up in 0.1 ml of […]. The mice were randomly allocated into a control group (five mice) and a treatment group (five mice per group). The drug treatment was commenced the next day. Doses and schedules were developed empirically and were based mainly on information on LD50 and LD1O obtained from preliminary toxicity studies. The control group received an equivalent volume of hydroxypropyl-β-cyclodextrin-5% glucose solution.
The pharmaceutical compositions tested comprised solutions in 5% glucose subjected to sonication at concentrations of 1 mg/ml. Those compounds which were not completely dissolved by this procedure were dissolved hydroxypropyl-β-cyclodextrin using the following method. Hydroxypropyl-β-cyclodextrin (45 g) was mixed with 100 ml of sterilized, double distilled water and stirred for four hours. Each of the compounds to be tested (20 mg) was mixed with 10 ml of hydroxypropyl-β-cyclodextrin solution and sonicated for 60 minutes in the dark. This solution was then diluted in 5% glucose to yield a final compound concentration of 0.5 mg/ml, and further sonicated for 60 minutes in the dark to assure that the compound was completely dissolved.
When the growth of tumors in the control group reached the exponential phase and the size of the tumor was palpable (usually 20 to 30 days after tumor implantation), the experiments were terminated. Tumors in each mouse were excised and weighed using an analytical balance. Total tumor weight in each group from five mice was calculated. Per cent tumor inhibition between the treated group and the control group was then calculated for each group.

[4] = tested on: CRL 1420 cells; assay: colony assay of Example 1 with human pancreatic carcinoma CRL 1420 cell line; assay type: cell-based; conditions: for Selectivity: CV-1/CRL-1420; for CRL-1420(IC50) / IC50: Table VII, human pancreatic carcinoma, 24 hours treatment;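 for all read-outs here: colony formation assay, cells exposed for 24 h then regrown 7 to 10 days without compound, colonies stained with crystal violet, control given medium alone, normal reference CV-1 monkey kidney epithelial cells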
[5] = tested on: CV-1 cells; assay: selective killing assay, colony number reduced to 50% of control, normal monkey kidney epithelial cell line CV-1; assay type: cell-based; conditions: 24 hours treatment; for IC50: Primates
Description: (§1) The control received culture media only.

[6] = tested on: LOX cells; assay: colony assay of Example 1 with human melanoma LOX cell line; assay type: cell-based; conditions: for Selectivity: CV-1/LOX; for LOX(IC50) / IC50: Table V, human melanoma, 24 hours treatment; for IC50: LOX;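 for all read-outs here: colony formation assay with 24 h exposure at 37 °C, then 7 to 10 days of regrowth, crystal violet staining of colonies, control wells given medium alone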
Description: Human colon carcinoma cell line CX-1 or normal monkey kidney epithelial cell line CV-1 was chosen as representatives of cancer cells and normal cells, respectively. […] CX-1 cells (2,000 cells/well) and CV-1 cells (1,000 cells/well) were plated in 24-well plastic culture plates. […] The control received culture media only. Cells were treated with compounds of General Formulas (I) to (V) at 37° C. for 24 hours. After rinsing with fresh culture medium three times, the cells were further incubated at 37° C. for 7 to 10 days. Cell colonies were fixed and stained with 2% crystal violet in 70% ethanol for 10 minutes and rinsed in water. […] The selectivity is defined as the ratio of IC50 for CV-1 and IC50 for CX-1.

[7] = tested on: MCF-7 cells; assay: colony assay of Example 1 with human breast carcinoma MCF-7 cell line; assay type: cell-based; conditions: for Selectivity: CV-1/MCF-7; for IC50: Table VI, human breast carcinoma, 24 hours treatment
Description: as §1

[8] = tested on: human melanoma LOX; assay: survival of nude mice implanted with human melanoma LOX; assay type: in vivo, male athymic Swiss nu/nu mouse (human tumor); conditions: for response vs control in vivo at 5 mg/kg: Mus musculus, ip, read-out: T/C; for T/C: 5 mg/kg i.p. on day 1, 4, 8, 11, 15, 18
[9] = CV-1, Table III, normal monkey kidney epithelial cells, colony count after 7 to 10 days
[10] = Mus musculus, ip, 24 h, 5 mg/kg i.p. on day 1, 9, 13, read-out: Tumor Inhibition
[11] = Table III, normal monkey kidney epithelial cells, colony count after 7 to 10 days

Compound	Selectivity [1]	EJ (IC50) [1]	Selectivity (ratio of IC50 for CV-1 and IC50 for CX-1) [2]	CX-1 (IC50) ([2]; Table III)	Selectivity [4]	CRL-1420(IC50) [4]	Selectivity [6]	LOX(IC50) [6]	Selectivity [7]	IC50 [5, 9]	IC50 ([2]; Homo sapiens, CX-1, Table III)	IC50 ([5]; CV-1, 24 h, Table IV)	IC50 ([5]; CV-1, 24 h, Table V)	IC50 ([5]; CV-1, 24 h, Table VII)	IC50 ([6]; Homo sapiens, 24 h)	CV-1 (IC50) ([5]; Table V)	also measured
CCn1c(=Cc2oc3ccccc3[n+]2C)sc(=C2Sc3ccccc3N2C)c1=O [Compound 26]	400	0.05 µg/mL	500	0.04 µg/mL	500	0.04 µg/mL	400	0.05 µg/mL	333	–	–	–	–	–	–	–	inhibition in vivo at 5 mg/kg ([3]; Mus musculus, ip, 24 h, 5 mg/kg i.p. on day 1, 5, 8, 11, read-out: Tumor Inhibition): 53.6%; IC50 ([5]; CV-1, 24 h, Table VI): 20 µg/mL; IC50 ([7]; Homo sapiens, MCF7, 24 h): 0.06 µg/mL
CCn1c(=Cc2[se]c3ccccc3[n+]2CC)sc(=C2Sc3ccccc3N2C)c1=O [Compound 27]	1000	–	667	–	1333	–	1333	–	333	20 µg/mL	–	–	–	–	–	–	IC50 [1]: 0.02 µg/mL; IC50 ([2]; CX-1, Table III): 0.03 µg/mL; inhibition in vivo at 2.5 mg/kg ([3]; Mus musculus, ip, 24 h, read-out: Tumor Inhibition): 40.9%; IC50 [4]: 0.015 µg/mL; IC50 ([5]; CV-1, Table IV): 20 µg/mL; IC50 ([5]; CV-1, Table V): 20 µg/mL; IC50 [6]: 0.015 µg/mL; IC50 ([7]; MCF7): 0.06 µg/mL
CC[n+]1c(C=c2sc(=C3Sc4ccccc4N3C)c(=O)n2-c2ccccc2)sc2ccccc21 [Compound 7]	–	–	300	–	–	–	–	–	–	1.5 µg/mL	0.005 µg/mL	–	–	–	–	–	response vs control in vivo at 5 mg/kg ([8]; 24 h, 5 mg/kg i.p. on day 1, 4, 8, 12): 182%; inhibition in vivo at 5 mg/kg ([3]; Mus musculus, ip, 24 h, 5 mg/kg i.p. on day 1, 5, 7, read-out: Tumor Inhibition): 42%
CCN1C(=c2sc(=Cc3oc4ccccc4[n+]3CC)n(CC)c2=O)Sc2ccccc21 [Compound 19]	200	–	500	–	111	–	> 200	–	167	10 µg/mL	0.02 µg/mL	20 µg/mL	20 µg/mL	10 µg/mL	< 0.1 µg/mL	–	IC50 ([1]; Homo sapiens, 24 h): 0.1 µg/mL; inhibition in vivo at 5 mg/kg [3, 10]: 60.4%; IC50 ([4]; Homo sapiens, 24 h): 0.09 µg/mL; IC50 ([5]; CV-1, 24 h, Table VI): 10 µg/mL; IC50 ([7]; Homo sapiens, MCF7, 24 h): 0.06 µg/mL
CCn1c(=Cc2ccc3ccccc3[n+]2CC)sc(=C2Sc3ccccc3N2C)c1=O [Compound 21]	364	–	800	0.01 µg/mL	261	–	261	–	–	–	–	8 µg/mL	8 µg/mL	8 µg/mL	0.03 µg/mL	–	IC50 ([1]; Homo sapiens, 24 h): 0.022 µg/mL; response vs control in vivo at 5 mg/kg ([8]; 5 mg/kg i.p. on day 1, 2.5 mg/kg on day 5, 8): 133%; inhibition in vivo at 2.5 mg/kg ([3]; Mus musculus, ip, 24 h, 2.5 mg/kg i.p. on day 1, 5, 8, 12, read-out: Tumor Inhibition): 50.2%; IC50 ([4]; Homo sapiens, 24 h): 0.03 µg/mL
CCn1c(=Cc2oc3ccccc3[n+]2C)sc(=C2Sc3ccccc3N2C)c1=O [Compound 13]	222	0.09 µg/mL	> 667	0.03 µg/mL	> 400	0.05 µg/mL	> 222	0.09 µg/mL	–	–	–	–	–	–	–	> 20 µg/mL	response vs control in vivo at 5 mg/kg ([8]; 24 h, 5 mg/kg i.p. on day 1, 4, 8, 11): 147%; inhibition in vivo at 20 mg/kg ([3]; Mus musculus, ip, 24 h, 20 mg/kg i.p. on day 1, 5, 8, 12, 15, 19, read-out: Tumor Inhibition): 87.7%; CV-1 (IC50) [5, 11]: > 20 µg/mL; CV-1 (IC50) ([5]; Table IV): 20 µg/mL; CV-1 (IC50) ([5]; Table VII): > 20 µg/mL
CCn1c(=Cc2oc3ccccc3[n+]2C)sc(=C2Sc3ccccc3N2C)c1=O [Compound 9]	400	0.05 µg/mL	500	0.04 µg/mL	222	0.09 µg/mL	> 300	0.1 µg/mL	–	–	–	20 µg/mL	–	20 µg/mL	–	> 30 µg/mL	T/C [8]: 142%; inhibition in vivo at 5 mg/kg [3, 10]: 45.2%
CCn1c(=Cc2oc3ccccc3[n+]2C)sc(=C2Sc3ccccc3N2C)c1=O [Compound 8]	–	–	500	–	–	–	> 200	–	–	–	0.04 µg/mL	–	20 µg/mL	–	< 0.1 µg/mL	–	response vs control in vivo at 5 mg/kg ([8]; 24 h, 5 mg/kg i.p. on day 1, 4, 8, 11, 15): 142%; inhibition in vivo at 5 mg/kg ([3]; Mus musculus, ip, 24 h, 5 mg/kg i.p. on day 1, 5, 9, 13, read-out: Tumor Inhibition): 55.1%
CCn1c(=Cc2oc3ccccc3[n+]2C)sc(=C2Sc3ccccc3N2C)c1=O [Compound 10]	–	–	500	0.04 µg/mL	250	0.08 µg/mL	> 300	0.1 µg/mL	–	–	–	–	–	–	–	> 30 µg/mL	T/C [8]: 171%; Tumor Inhibition ([3]; 5 mg/kg i.p. on day 1, 5, 9, 13): 66.0%; CV-1 (IC50) [5, 11]: 20 µg/mL; CV-1 (IC50) ([5]; Table VII): 20 µg/mL
